Results published in patent US7060725B2, “Substituted sulfamate anticonvulsant derivatives” (Janssen Pharmaceutica N.V., priority 2002, dated 2006).

What was measured:
[1] = system: maximal electroshock seizure (MES-induced seizure spread); test: Maximal electroshock seizure (MES) test, rat; format: in vivo, rats; details: for Rat Activity (oral) (number of rats active/total number of rats tested): 30 mg/kg
Description: Anticonvulsant activity was determined using the standard MES model for generalized tonic-clonic seizures (Swinyard E A, Woodhead J H, White H S, Franklin M R, In: […], Meldrum […], Dreifuss F E eds. Antiepileptic drugs. New York: Raven Press, 1989:85-102). An electric stimulus of 0.2 sec duration, 60 Hz, 50 mA in mice, 150 mA in rats, was delivered via corneal electrodes primed with an electrolyte solution containing an anesthetic agent (0.5% tetracaine hydrochloride in 0.9% saline). Mice or rats were randomly selected into control and test groups. The animals were dosed with vehicle or test compound, at varying concentrations. Mice were subjected to the electrical stimulus at 30 minutes and 4 hours following administration of test compound. […] Abolition of the hind limb tonic extensor component was an indication of the test compound's ability to inhibit MES-induced seizure spread. […] A probit analysis (Finney D J. Probit Analysis. Cambridge, England: Cambridge University Press, 1971) was used to calculate the ED50. Following the rat procedure described above, representative compounds of the instant invention were tested for biological activity in the rat, with results as listed in Table 6 and 7. Rat activity is listed as number of rats active/total number of rats tested @ time after administration of the test compound.

[2] = system: maximal electroshock seizure (MES-induced seizure spread); test: Maximal electroshock seizure (MES) test, mouse; format: in vivo, mice
Description: Anticonvulsant activity was determined using the standard MES model for generalized tonic-clonic seizures (Swinyard E A, Woodhead J H, White H S, Franklin M R, In: Levy R H, Mattson R H, Meldrum B S, Penry J K, Dreifuss F E eds. Antiepileptic drugs. New York: Raven Press, 1989:85–102).
An electric stimulus of 0.2 sec duration, 60 Hz, 50 mA in mice, 150 mA in rats, was delivered via corneal electrodes primed with an electrolyte solution containing an anesthetic agent (0.5% tetracaine hydrochloride in 0.9% saline).
Mice or rats were randomly selected into control and test groups. The animals were dosed with vehicle or test compound, at varying concentrations. […] Rats were subjected to electrical stimulus at time intervals between 15 minutes and 4 hours following administration of test compound. Abolition of the hind limb tonic extensor component was an indication of the test compound's ability to inhibit MES-induced seizure spread.
The ED50 (the calculated dose required to block the hindlimb tonic-extensor component of the maximal electroshock seizure in 50% of the animals tested) was calculated. A probit analysis (Finney D J. Probit Analysis. Cambridge, England: Cambridge University Press, 1971) was used to calculate the ED50.
Following the mouse procedure described above, representative compounds of the instant invention were tested for biological activity in the mouse, with results as listed in Table 5. Mouse activity is listed as number of mice active/total number of mice tested @ time after administration of the test compound.

[3] = system: simple and complex partial seizure and secondarily generalized seizures; details: cited from earlier work
[4] = 100 mg/kg, @ 0.5 hrs after administration

SMILES: CC1(C)OC2[C@@H](CO[C@@]3(COS(=O)(=O)NS(=O)(=O)C(F)(F)F)OC(C)(C)O[C@@H]23)O1 (stereo partly drawn) [Compound 30, N-trifluoromethylsulfonyl-2,3:4,5-bis-O-(1-methylethylidene)-β-D-fructopyranose sulfamate]
- ED50 ([1]; @ 4 hrs): 2.38 @ 4 hrs m/k
- Rat Activity (oral) (number of rats active/total number of rats tested) ([1]; @ 0.25 hrs): 3/4 @ 0.25 hrs
- Rat Activity (oral) (number of rats active/total number of rats tested) ([1]; @ 0.5 hrs): 4/4 @ 0.5 hrs
- Rat Activity (oral) (number of rats active/total number of rats tested) ([1]; @ 1 hr): 3/4 @ 1 hr
- Rat Activity (oral) (number of rats active/total number of rats tested) ([1]; @ 2 hrs): 4/4 @ 2 hrs
- Rat Activity (oral) (number of rats active/total number of rats tested) ([1]; @ 4 hrs): 4/4 @ 4 hrs
- Mouse Activity (number of mice active/total number of mice tested) [2, 4]: 2/3 @ 0.5 hrs
- Mouse Activity (number of mice active/total number of mice tested) ([2]; 100 mg/kg, @ 4 hrs after administration): 3/3 @ 4 hrs
- Mouse Activity (number of mice active/total number of mice tested) ([2]; 300 mg/kg, @ 0.5 hrs after administration): 1/1 @ 0.5 hrs
- Mouse Activity (number of mice active/total number of mice tested) ([2]; 300 mg/kg, @ 4 hrs after administration): 1/1 @ 4 hrs
- Mouse Activity ([2]; dosage 30 mg/kg): No activity

SMILES: CC1(C)OC2COC3(COS(=O)(=O)NC(c4ccccc4)c4ccccc4)OC(C)(C)OC3C2O1 (stereo not shown) [Compound 37]
- Rat Activity (oral) (number of rats active/total number of rats tested) ([1]; @ 1 hr): 1/4 @ 1 hr
- Rat Activity (oral) (number of rats active/total number of rats tested) ([1]; @ 2 hrs): 2/4 @ 2 hrs
- Rat Activity (oral) (number of rats active/total number of rats tested) ([1]; @ 4 hrs): 1/4 @ 4 hrs
- Mouse Activity (number of mice active/total number of mice tested) [2, 4]: 0/3 @ ½ hr,
- Mouse Activity (number of mice active/total number of mice tested) ([2]; 100 mg/kg, @ 1 hr after administration): 0/3 @ ½ hr,
- Mouse Activity (number of mice active/total number of mice tested) ([2]; 100 mg/kg, @ 2 hrs after administration): 1/3 @ ¼ hrs,
- Mouse Activity (number of mice active/total number of mice tested) ([2]; 100 mg/kg, @ 6 hrs after administration): 1/3 @ ¼ hrs,
- Mouse Activity (number of mice active/total number of mice tested) ([2]; 100 mg/kg, @ ¼ hrs after administration): 1/3 @ ¼ hrs,
- Mouse Activity ([2]; dosage 30 mg/kg): No Activity
- Mouse Activity ([2]; dosage 300 mg/kg): No activity

SMILES: CC(C)Oc1ccccc1N1CCN(S(=O)(=O)OCC23OCC4OC(C)(C)OC4C2OC(C)(C)O3)CC1 (stereo not shown) [Compound 39]
- Rat Activity (oral) (number of rats active/total number of rats tested) ([1]; @ 4 hrs): 1/4 @ 4 hrs
- Mouse Activity ([2]; dosage 30, 100, 300 mg/kg): No activity

SMILES: CC1(C)O[C@@H]2[C@@H](CO[C@@]3(COS(N)(=O)=O)OC(C)(C)O[C@@H]23)O1 [TPM, 2,3:4,5-bis-O-(1-methylethylidene)-β-D-fructopyranose sulfamate, reference compound]
- ED50 ([2]; @ 2 hrs): ED50 = 33 m/k
- efficacy in clinical trials of human epilepsy [3]: effective as adjunctive therapy or as monotherapy
